“Also recorded” adds a separate entry of the source.
Assays:
fibroblasts = assay: Fas-induced apoptosis, fibroblasts; type: cell-based, human; settings: data not shown
Procedure: Primary normal human lung fibroblasts (Clonetics, Cambrex Bioscience, Rockland, Me.), primary distal lung human epithelial cells (Clonetics) or A549 (American Type Culture Collection, Manassas, Va.) were seeded in a 96-well tissue culture plate (2×10^4 cells/well) overnight and serum-starved for 24 hours. Function blocking antibody to the human type 1 IGF receptor (A12), a generous gift from ImClone Systems (New York, N.Y.) (Burtrum D, et al., Cancer Res 63:8912-8921 (2003); Wu J D, et al., Clin Cancer Res 11:3065-3074 (2005)), was added to media at indicated concentration for 24 hours. In some experiments, soluble Fas ligand (Alexis Biochemicals, Lausen, Switzerland) or IGFBP-3 (R&D Systems) was added to cells. […] After 48 hours, apoptosis was measured. To prevent detached cells from being aspirated, plates were centrifuged at 200×g for 10 minutes, and apoptosis was measured using the Cell Death Detection ELISA-plus System (Roche Applied Science, Penzberg, Germany), which detects cytosolic histone-complexed DNA fragments. […] The data are reported as the mean absorbance of triplicate wells mean+SE or as apoptosis index, defined as the ratio of the mean absorbance of triplicate wells in the experimental condition OD405 nm/control (media alone) OD405 nm.

epithelial cells (A549) = assay: Fas-induced apoptosis, epithelial cells; type: cell-based, human; settings: A549, antibody 136 μg/ml with Fas ligand
Procedure: A: Normal human lung fibroblast or distal lung epithelial cells were serum-starved overnight and then incubated with indicated concentration of IGF-1R antibody or IGFBP-3 overnight. B: A549 cells were serum-starved and incubated with IGF-1R antibody (136 μg/ml) with or without the indicated concentration of Fas ligand. Apoptosis was measured by Cell Death ELISA-plus ELISA (Roche Applied Science) per the manufacturer's directions. All experiments were done in triplicate and repeated at least twice. Apoptosis index is defined as the ratio of experimental condition OD405 nm: control (media alone) OD405 nm.
Primary normal human lung fibroblasts (Clonetics, Cambrex Bioscience, Rockland, Me.), primary distal lung human epithelial cells (Clonetics) or A549 (American Type Culture Collection, Manassas, Va.) were seeded in a 96-well tissue culture plate (2×10^4 cells/well) overnight and serum-starved for 24 hours. […] After 48 hours, apoptosis was measured. To prevent detached cells from being aspirated, plates were centrifuged at 200×g for 10 minutes, and apoptosis was measured using the Cell Death Detection ELISA-plus System (Roche Applied Science, Penzberg, Germany), which detects cytosolic histone-complexed DNA fragments. […]

[1] = tested on: primary mouse lung fibroblasts; assay: apoptosis assay (Cell Death Detection ELISA-plus), mouse lung fibroblasts; type: cell-based, C57BL6 mice; settings: serum-starved, 24 hours
Procedure: A. Quantification of TUNEL IHC by number of TUNEL positive cells/total # of cells. Average ±SD of two mice/condition and at least 500 cells analyzed per condition. […] Mouse lung fibroblasts were serum starved overnight and then incubated with indicated concentration of IGF-1R antibody, A12. Apoptosis was measured by Cell Death ELISA-plus (Roche Applied Science). All experiments were done in triplicate and repeated at least twice. Apoptosis index is defined as ratio of experimental condition OD405nm/control (media alone) OD405nm. The data was analyzed using one-way ANOVA with Tukey's HSD post hoc test, and statistical significance (*) was determined at p<0.05.
For apoptosis assays, primary mouse lung fibroblasts were plated in 96-well plates (20,000 cells/well) overnight and serum-starved for 24 hours. Functional blocking antibody to the type 1 IGF receptor (A12) was added to media at indicated concentration for 24 hours. At the end of the experiment, plates were centrifuged at 200×g for 10 minutes to prevent detached cells from being aspirated, and apoptosis was measured using the Cell Death Detection ELISA-plus System (Roche Applied Science, Penzberg, Germany), which detects cytosolic histone-complexed DNA fragments. All experiments were done in triplicate and repeated at least twice. Apoptosis index was defined as ratio of experimental condition OD405nm/control (media alone) OD405nm.

[2] = type: in vivo, mice; settings: absence of bleomycin, not shown
Excerpt: In the saline control group, most deaths occurred between 7 and 10 days, as expected in this model. […] In the absence of bleomycin, administration of A12 alone had no affect on survival, lung histology, BAL protein concentration or cell count (not shown).

## A12: Function blocking antibody to the human type 1 IGF receptor, gift from ImClone Systems
fibroblasts
  Fas-induced apoptosis of fibroblasts: did not alter Fas-induced apoptosis
Epithelial cells (A549)
  Fas-induced apoptosis of epithelial cells: did not alter Fas-induced apoptosis
[1]
  apoptosis of primary mouse lung fibroblasts: dose-dependent increase in apoptosis; also recorded: Increased apoptosis
[1]; listed as IGF-1R antibody
  apoptosis of primary mouse lung fibroblasts: increased apoptosis
[2]
  survival, lung histology, BAL protein concentration or cell count: had no affect

Reference: patent US8178091B2, “Compositions and methods for the treatment of respiratory disorders” (University of Washington, priority 2007, dated 2012)
